Reference: the NIST ThermoML archive (doi:10.1021/je8003782)
Values joined by “and” are separate entries in the source; they are usually repeats but may differ in a detail not shown here. Identical values can stand only once. ± gives the expanded uncertainty stated by the source.

Key:
[1] = xn = mol fraction of the nth substance listed; settings: 101 kPa, Liquid
[2] = 101.3 kPa, Liquid

Structure (SMILES)	mass density ([2]; 293.15 K)	viscosity ([2]; 293.15 K)	mass density ([2]; 298.15 K)	viscosity ([2]; 298.15 K)	mass density ([2]; 303.15 K)	viscosity ([2]; 303.15 K)	mass density ([2]; 308.15 K)	viscosity ([2]; 308.15 K)	mass density ([2]; 313.15 K)	viscosity ([2]; 313.15 K)	mass density ([2]; 318.15 K)	viscosity ([2]; 318.15 K)	mass density ([2]; 323.15 K)	viscosity ([2]; 323.15 K)	mass density ([2]; 328.15 K)	viscosity ([2]; 328.15 K)	mass density ([2]; 333.15 K)	viscosity ([2]; 333.15 K)	mass density ([2]; 338.15 K) [kg/m3]	viscosity ([2]; 338.15 K) [mPa·s]	other results
CC(=O)O [acetic acid] + CC(=O)OC(C)=O	–	–	–	–	–	–	–	–	–	–	–	–	–	–	–	–	–	–	–	–	mass density ([1]; 293.15 K, x1 = 1): 1049.42 ± 0.86 kg/m3; viscosity ([1]; 293.15 K, x1 = 1): 1.204 ± 0.017 mPa·s; mass density ([1]; 298.15 K, x1 = 1): 1043.76 ± 0.82 kg/m3; viscosity ([1]; 298.15 K, x1 = 1): 1.114 ± 0.016 mPa·s; mass density ([1]; 303.15 K, x1 = 1): 1038.1 ± 0.79 kg/m3; viscosity ([1]; 303.15 K, x1 = 1): 1.037 ± 0.016 mPa·s; mass density ([1]; 308.15 K, x1 = 1): 1032.44 ± 0.75 kg/m3; viscosity ([1]; 308.15 K, x1 = 1): 0.964 ± 0.015 mPa·s; mass density ([1]; 313.15 K, x1 = 1): 1026.77 ± 0.72 kg/m3; viscosity ([1]; 313.15 K, x1 = 1): 0.902 ± 0.015 mPa·s; mass density ([1]; 318.15 K, x1 = 1): 1021.11 ± 0.68 kg/m3; viscosity ([1]; 318.15 K, x1 = 1): 0.841 ± 0.014 mPa·s; mass density ([1]; 323.15 K, x1 = 1): 1015.44 ± 0.64 kg/m3; viscosity ([1]; 323.15 K, x1 = 1): 0.787 ± 0.014 mPa·s; mass density ([1]; 328.15 K, x1 = 1): 1009.77 ± 0.61 kg/m3; viscosity ([1]; 328.15 K, x1 = 1): 0.741 ± 0.013 mPa·s; mass density ([1]; 333.15 K, x1 = 1): 1004.09 ± 0.57 kg/m3; viscosity ([1]; 333.15 K, x1 = 1): 0.697 ± 0.013 mPa·s; mass density ([1]; 338.15 K, x1 = 1): 998.38 ± 0.56 kg/m3; viscosity ([1]; 338.15 K, x1 = 1): 0.657 ± 0.013 mPa·s
CC(=O)O [acetic acid] + C1N2CN3CN1CN(C2)C3	–	–	–	–	–	–	–	–	–	–	–	–	–	–	–	–	–	–	–	–	mass density ([1]; 293.15 K, x2 = 0): 1049.42 ± 1.7 kg/m3; viscosity ([1]; 293.15 K, x2 = 0): 1.204 ± 0.029 mPa·s; mass density ([1]; 298.15 K, x2 = 0): 1043.76 ± 1.6 kg/m3; viscosity ([1]; 298.15 K, x2 = 0): 1.114 ± 0.027 mPa·s; mass density ([1]; 303.15 K, x2 = 0): 1038.1 ± 1.5 kg/m3; viscosity ([1]; 303.15 K, x2 = 0): 1.037 ± 0.026 mPa·s; mass density ([1]; 308.15 K, x2 = 0): 1032.44 ± 1.4 kg/m3; viscosity ([1]; 308.15 K, x2 = 0): 0.964 ± 0.024 mPa·s; mass density ([1]; 313.15 K, x2 = 0): 1026.77 ± 1.4 kg/m3; viscosity ([1]; 313.15 K, x2 = 0): 0.902 ± 0.023 mPa·s; mass density ([1]; 318.15 K, x2 = 0): 1021.11 ± 1.3 kg/m3; viscosity ([1]; 318.15 K, x2 = 0): 0.841 ± 0.022 mPa·s; mass density ([1]; 323.15 K, x2 = 0): 1015.44 ± 1.2 kg/m3; viscosity ([1]; 323.15 K, x2 = 0): 0.787 ± 0.021 mPa·s; mass density ([1]; 328.15 K, x2 = 0): 1009.77 ± 1.2 kg/m3; viscosity ([1]; 328.15 K, x2 = 0): 0.741 ± 0.02 mPa·s; mass density ([1]; 333.15 K, x2 = 0): 1004.09 ± 1.1 kg/m3; viscosity ([1]; 333.15 K, x2 = 0): 0.697 ± 0.019 mPa·s
CC(=O)O [acetic acid]	1049.42 ± 0.86 kg/m3 and 1049.42 ± 1.7 kg/m3	1.204 ± 0.017 mPa·s and 1.204 ± 0.029 mPa·s	1043.76 ± 0.82 kg/m3 and 1043.76 ± 1.6 kg/m3	1.114 ± 0.016 mPa·s and 1.114 ± 0.027 mPa·s	1038.1 ± 0.79 kg/m3 and 1038.1 ± 1.5 kg/m3	1.037 ± 0.016 mPa·s and 1.037 ± 0.026 mPa·s	1032.44 ± 0.75 kg/m3 and 1032.44 ± 1.4 kg/m3	0.964 ± 0.015 mPa·s and 0.964 ± 0.024 mPa·s	1026.77 ± 0.72 kg/m3 and 1026.77 ± 1.4 kg/m3	0.902 ± 0.015 mPa·s and 0.902 ± 0.023 mPa·s	1021.11 ± 0.68 kg/m3 and 1021.11 ± 1.3 kg/m3	0.841 ± 0.014 mPa·s and 0.841 ± 0.022 mPa·s	1015.44 ± 0.64 kg/m3 and 1015.44 ± 1.2 kg/m3	0.787 ± 0.014 mPa·s and 0.787 ± 0.021 mPa·s	1009.77 ± 0.61 kg/m3 and 1009.77 ± 1.2 kg/m3	0.741 ± 0.013 mPa·s and 0.741 ± 0.02 mPa·s	1004.09 ± 0.57 kg/m3 and 1004.09 ± 1.1 kg/m3	0.697 ± 0.013 mPa·s and 0.697 ± 0.019 mPa·s	998.38 ± 0.56	0.657 ± 0.013	–
CC(=O)OC(C)=O [ethanoic anhydride]	1080.89 ± 1.5 kg/m3	0.888 ± 0.016 mPa·s	1074.8 ± 1.5 kg/m3	0.829 ± 0.015 mPa·s	1068.7 ± 1.4 kg/m3	0.778 ± 0.015 mPa·s	1062.61 ± 1.4 kg/m3	0.729 ± 0.014 mPa·s	1056.49 ± 1.4 kg/m3	0.688 ± 0.014 mPa·s	1050.38 ± 1.3 kg/m3	0.648 ± 0.014 mPa·s	1044.24 ± 1.3 kg/m3	0.61 ± 0.013 mPa·s	1038.07 ± 1.2 kg/m3	0.58 ± 0.013 mPa·s	1031.9 ± 1.2 kg/m3	0.548 ± 0.013 mPa·s	1025.7 ± 1.1	0.521 ± 0.013	–
